Numbered stars: 1 amine (or outer) side, 2 acyl side, 3 side chain; on linkers, the order of the positions; unused ones are H or OH. Square brackets hold non-standard residues; d marks the D form. Peptide text beside a SMILES is read from it. * marks the point of attachment. Phe(3-CF3) = N[C@@H](Cc1cccc(C(F)(F)F)c1)C(=O)O; X16 = CCN[C@@H]1C[C@@H](C(=O)[*:2])N([*:1])C1; Pro(4R-NH2) = N[C@H]1CN[C@H](C(=O)O)C1; dOrn(Me2) = CN(C)CCC[C@@H](N)C(=O)O; X2 = O=C([C@H]1CCCN([*:1])C1)[*:2]; Hyp = O=C(O)[C@@H]1C[C@@H](O)CN1; tBuAla = CC(C)(C)C[C@H](N)C(=O)O; NHcycloheptyl = C1CCCC(N*)CC1; NMeL = CN[C@@H](CC(C)C)C(=O)O; dOrn = NCCC[C@@H](N)C(=O)O; Ac6c = NC1(C(=O)O)CCCCC1; Octanoyl = CCCCCCCC(=O)*
Molecular target: T1, NPR-B (Homo sapiens, UniProt P20594)
T1 construct: a functional assay using endogenously NPR-B expressing GTM-3 cells; endogenous in cells; host or cells: GTM-3 (human glaucoma trabecular meshwork cells)
T1 sequence (P20594 23-1047): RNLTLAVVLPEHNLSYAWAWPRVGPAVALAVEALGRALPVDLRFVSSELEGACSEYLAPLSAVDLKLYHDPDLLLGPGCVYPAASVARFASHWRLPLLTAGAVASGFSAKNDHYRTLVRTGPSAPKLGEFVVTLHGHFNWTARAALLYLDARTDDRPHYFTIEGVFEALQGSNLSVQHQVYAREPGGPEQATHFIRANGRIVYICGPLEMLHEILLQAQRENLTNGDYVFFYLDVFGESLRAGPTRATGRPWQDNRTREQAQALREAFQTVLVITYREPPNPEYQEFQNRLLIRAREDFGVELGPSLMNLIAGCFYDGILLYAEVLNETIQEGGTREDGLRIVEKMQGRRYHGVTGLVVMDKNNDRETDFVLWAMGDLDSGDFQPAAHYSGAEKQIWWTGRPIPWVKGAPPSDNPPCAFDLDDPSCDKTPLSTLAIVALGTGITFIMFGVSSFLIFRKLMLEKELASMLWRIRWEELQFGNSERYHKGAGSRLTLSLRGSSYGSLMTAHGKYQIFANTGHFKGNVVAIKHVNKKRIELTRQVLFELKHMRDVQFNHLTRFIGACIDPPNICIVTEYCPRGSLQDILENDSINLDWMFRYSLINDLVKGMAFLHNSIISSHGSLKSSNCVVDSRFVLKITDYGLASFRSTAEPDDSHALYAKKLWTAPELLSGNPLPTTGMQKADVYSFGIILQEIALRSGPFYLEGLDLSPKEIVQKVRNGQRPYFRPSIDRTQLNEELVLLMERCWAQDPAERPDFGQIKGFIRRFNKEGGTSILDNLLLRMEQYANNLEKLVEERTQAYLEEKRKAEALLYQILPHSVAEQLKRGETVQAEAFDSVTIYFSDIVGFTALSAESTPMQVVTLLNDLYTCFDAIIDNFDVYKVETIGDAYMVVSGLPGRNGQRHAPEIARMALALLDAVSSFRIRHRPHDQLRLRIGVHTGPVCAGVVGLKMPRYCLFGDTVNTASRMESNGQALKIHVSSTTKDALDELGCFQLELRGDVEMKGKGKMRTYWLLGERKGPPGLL
Assay: NPR-B induced production of cyclic GMP in human glaucoma trabecular meshwork cells (GTM-3)
Format: cell-based
Conditions: group by EC50 and Emax (CNP = 100%); Table 4; read-out: Activity (group), NPR-B activation assayed with GTM-3 cells

With `CCCCCCCC(=O)N[C@H](C)C(=O)N[C@@H](Cc1ccccc1)C(=O)N[C@H](CC(C)C)C(=O)N[C@@H](CC(C)C)C(=O)N1CCC[C@H]1C(=O)N(C)[C@@H](CC(C)C)C(=O)N[C@@H](CC(=O)O)C(=O)N[C@@H](CCCNC(=N)N)C(=O)N[C@H](C(N)=O)[C@@H](C)CC` [JAL-1039, Occ-ala-Phe-leu-Leu-Pro-Nml-Asp-Arg-Ile-NH2] (HELM PEPTIDE1{[CCCCCCCC(=O)[*:2]].[dA].F.[dL].L.P.[meL].D.R.I.[am]}$$$$V2.0) the EC50 was less than 1 µM.
For `CCCCCCCC(=O)N1CCC[C@H](C(=O)N[C@@H](Cc2ccccc2)C(=O)N[C@H](CCCN(C)C)C(=O)N[C@@H](CC(C)C)C(=O)N2C[C@H](O)C[C@H]2C(=O)N(C)[C@@H](CC(C)C)C(=O)N[C@@H](CC(=O)O)C(=O)N[C@@H](CCCNC(=N)N)C(=O)NC2CCCCCC2)C1` [JAL-1776, Occ-Sni-Phe-orn(Me2)-Leu-Hyp-Nml-Asp-Arg-Che] (Octanoyl-[X2]F[dOrn(Me2)]L[Hyp][NMeL]DR-NHcycloheptyl), the EC50 was less than 1 µM.
In the case of `CCCCCCCC(=O)N1CCC[C@H](C(=O)N[C@@H](Cc2ccccc2)C(=O)N[C@H](CCCN(C)C)C(=O)N[C@@H](CC(C)C)C(=O)N2C[C@H](N)C[C@H]2C(=O)N(C)[C@@H](CC(C)C)C(=O)N[C@H](C(=O)N[C@@H](CCCNC(=N)N)C(=O)NC2CCCCCC2)C(C)C)C1` [JAL-1850, Occ-Sni-Phe-orn(Me2)-Leu-Tap-Nml-Val-Arg-Che] (Octanoyl-[X2]F[dOrn(Me2)]L[Pro(4R-NH2)][NMeL]VR-NHcycloheptyl), the EC50 is reported as less than 1 µM.
`CCCCCCCC(=O)N1CCC[C@H](C(=O)N[C@@H](Cc2ccccc2)C(=O)N[C@H](CC(C)C)C(=O)N[C@@H](CC(C)C)C(=O)N2C[C@H](NCC)C[C@H]2C(=O)N(C)[C@@H](CC(C)C)C(=O)N[C@@H](CC(=O)O)C(=O)N[C@@H](CCCNC(=N)N)C(=O)N[C@H](C(N)=O)[C@@H](C)CC)C1` [JAL-1349, Occ-Sni-Phe-leu-Leu-Tap(Et)-Nml-Asp-Arg-Ile-NH2] (Octanoyl-[X2]F[dL]L[X16][NMeL]DRI-NH2) showed an EC50 of less than 1 µM.
`CCCCCCCC(=O)N1CCC[C@H](C(=O)N[C@@H](Cc2ccccc2)C(=O)N[C@H](CC(C)C)C(=O)N[C@@H](CC(C)C)C(=O)N2C[C@H](N)C[C@H]2C(=O)N(C)[C@@H](CC(C)C)C(=O)N[C@@H](CC(=O)O)C(=O)N[C@@H](CCCNC(=N)N)C(=O)NC2CCCCCC2)C1` [JAL-1682, Occ-Sni-Phe-leu-Leu-Tap-Nml-Asp-Arg-Che] (Octanoyl-[X2]F[dL]L[Pro(4R-NH2)][NMeL]DR-NHcycloheptyl) showed an EC50 of less than 1 µM.
`CCCCCCCC(=O)N[C@H](C)C(=O)N[C@@H](Cc1ccccc1)C(=O)N[C@H](CC(C)C)C(=O)N[C@@H](CC(C)C)C(=O)N1C[C@H](O)C[C@H]1C(=O)N(C)[C@@H](CC(C)C)C(=O)N[C@@H](CC(=O)O)C(=O)N[C@@H](CCCNC(=N)N)C(=O)NC(C)(CC(C)C)C(N)=O` (stereo partly drawn) [JAL-1414, Occ-ala-Phe-leu-Leu-Hyp-Nml-Asp-Arg-Aml-NH2] (HELM PEPTIDE1{[CCCCCCCC(=O)[*:2]].[dA].F.[dL].L.[Hyp].[meL].D.R.[CC(C)CC(C)(N[*:1])C(=O)[*:2]].[am]}$$$$V2.0) showed an EC50 of less than 1 µM.
`CCCCCC[C@H](NC(=O)[C@@H]1CCCN1C(=O)[C@@H](N)CCCCN)C(=O)N1CCC[C@H](C(=O)N[C@@H](Cc2ccccc2)C(=O)N[C@H](CC(C)C)C(=O)N[C@@H](CC(C)C)C(=O)N2C[C@H](O)C[C@H]2C(=O)N(C)[C@@H](CC(C)C)C(=O)N[C@@H](CC(=O)O)C(=O)N[C@@H](CCCNC(=N)N)C(=O)N[C@H](C(N)=O)[C@@H](C)CC)C1` [JAL-1900, H-Lys-Pro-Hgl-Sni-Phe-leu-Leu-Hyp-Nml-Asp-Arg-Ile-NH2] (HELM PEPTIDE1{K.P.[CCCCCC[C@H](N[*:1])C(=O)[*:2]].[O=C([C@H]1CCCN([*:1])C1)[*:2]].F.[dL].L.[Hyp].[meL].D.R.I.[am]}$$$$V2.0) showed an EC50 of less than 1 µM.
In the case of `CCCCCCCC(=O)N1CCC[C@H](C(=O)N[C@@H](Cc2ccccc2)C(=O)N[C@H](CC(C)C)C(=O)N[C@@H](CC(C)C)C(=O)N2C[C@H](O)C[C@H]2C(=O)N[C@@H](CC(C)(C)C)C(=O)N[C@@H](CC(=O)O)C(=O)N2CCC[C@H]2C(=O)NC2CCCCCC2)C1` [JAL-1595, Occ-Sni-Phe-leu-Leu-Hyp-Npg-Asp-Pro-Che] (Octanoyl-[X2]F[dL]L[Hyp][tBuAla]DP-NHcycloheptyl), the EC50 is reported as less than 1 µM.
Compound `CCCCCCCC(=O)N[C@H](C)C(=O)N[C@@H](Cc1ccccc1)C(=O)N[C@H](CC(C)C)C(=O)N[C@@H](CC(C)C)C(=O)N1C[C@H](O)C[C@H]1C(=O)N(C)[C@@H](CC(C)C)C(=O)N[C@@H](CC(=O)O)C(=O)N(C)[C@@H](CCCNC(=N)N)C(=O)N[C@H](C(N)=O)[C@@H](C)CC` [JAL-1417, Occ-ala-Phe-leu-Leu-Hyp-Nml-Asp-Nmr-Ile-NH2] (HELM PEPTIDE1{[CCCCCCCC(=O)[*:2]].[dA].F.[dL].L.[Hyp].[meL].D.[meR].I.[am]}$$$$V2.0) has an EC50 of less than 1 µM.
Compound `CCCCCCCC(=O)N[C@H]1CCN([C@@H](Cc2ccccc2)C(=O)N[C@H](CC(C)C)C(=O)N[C@@H](CC(C)C)C(=O)N2C[C@H](O)C[C@H]2C(=O)N(C)[C@@H](CC(C)C)C(=O)N[C@@H](CC(=O)O)C(=O)N[C@@H](CCCNC(=N)N)C(=O)N[C@H](C(N)=O)[C@@H](C)CC)C1=O` [JAL-1671, Occ-(AFL)-leu-Leu-Hyp-Nml-Asp-Arg-Ile-NH2] has an EC50 of less than 1 µM.
For `CCCCCCCC(=O)N[C@H](C)C(=O)N[C@@H](Cc1ccccc1)C(=O)N[C@H](CCCNC(=N)N)C(=O)N[C@@H](CC(C)C)C(=O)N1C[C@H](N)C[C@H]1C(=O)N[C@@H](CC(C)C)C(=O)N[C@@H](CC(=O)O)C(=O)N[C@@H](CCCNC(=N)N)C(=O)N[C@H](C(N)=O)[C@@H](C)CC` [JAL-1250, Occ-ala-Phe-arg-Leu-Tap-Leu-Asp-Arg-Ile-NH2] (HELM PEPTIDE1{[CCCCCCCC(=O)[*:2]].[dA].F.[dR].L.[N[C@@H]1C[C@@H](C(=O)[*:2])N([*:1])C1].L.D.R.I.[am]}$$$$V2.0), the EC50 was less than 1 µM.
`CCCCCCCC(=O)N[C@H](C)C(=O)N[C@@H](Cc1ccccc1)C(=O)N[C@H](CC(C)C)C(=O)N[C@@H](CC(C)C)C(=O)N1C[C@H](O)C[C@H]1C(=O)N(C)[C@@H](CC(C)C)C(=O)N[C@@H](CC(=O)O)C(=O)N[C@@H](CCCNC(=N)N)C(=O)NC(CC)(CC)C(N)=O` [JAL-1416, Occ-ala-Phe-leu-Leu-Hyp-Nml-Asp-Arg-Deg-NH2] (HELM PEPTIDE1{[CCCCCCCC(=O)[*:2]].[dA].F.[dL].L.[Hyp].[meL].D.R.[CCC(CC)(N[*:1])C(=O)[*:2]].[am]}$$$$V2.0) showed an EC50 of less than 1 µM.
`CCCCCCCC(=O)N[C@H](C)C(=O)N[C@@H](Cc1ccccc1)C(=O)NC1(C(=O)N[C@@H](CC(C)C)C(=O)N2C[C@H](N)C[C@H]2C(=O)N(C)[C@@H](CC(C)C)C(=O)N[C@@H](CC(=O)O)C(=O)N[C@@H](CCCNC(=N)N)C(=O)N[C@H](C(N)=O)[C@@H](C)CC)CCCCC1` [JAL-1454, Occ-ala-Phe-Egz-Leu-Tap-Nml-Asp-Arg-Ile-NH2] (Octanoyl-[dA]F[Ac6c]L[Pro(4R-NH2)][NMeL]DRI-NH2) showed an EC50 of less than 1 µM.
In the case of `CCCCCCCC(=O)N1CCC[C@H](C(=O)N[C@@H](Cc2ccccc2)C(=O)N[C@H](CC(C)C)C(=O)N[C@@H](CC(C)C)C(=O)N2C[C@H](O)C[C@H]2C(=O)N(C)[C@@H](CC(C)C)C(=O)N[C@@H](CC(=O)O)C(=O)N[C@@H](CCCNC(=N)N)C(=O)NC2CCCCCC2)C1` [JAL-1680, Occ-Sni-Phe-leu-Leu-Hyp-Nml-Asp-Arg-Che] (Octanoyl-[X2]F[dL]L[Hyp][NMeL]DR-NHcycloheptyl), the EC50 is reported as less than 1 µM.
In the case of `CCCCCCCC(=O)N1CCC[C@H](C(=O)N[C@@H](Cc2ccccc2)C(=O)N[C@H](CCCN)C(=O)N[C@@H](CC(C)C)C(=O)N2C[C@H](N)C[C@H]2C(=O)N(C)[C@@H](CC(C)C)C(=O)N[C@@H](CC(=O)O)C(=O)N[C@@H](CCCNC(=N)N)C(=O)N[C@H](C(N)=O)[C@@H](C)CC)C1` [JAL-1318, Occ-Sni-Phe-orn-Leu-Tap-Nml-Asp-Arg-Ile-NH2] (Octanoyl-[X2]F[dOrn]L[Pro(4R-NH2)][NMeL]DRI-NH2), the EC50 is reported as less than 1 µM.
`CCCCCCCC(=O)N1CCC[C@H](C(=O)N[C@@H](Cc2cccc(C(F)(F)F)c2)C(=O)N[C@H](CC(C)C)C(=O)N[C@@H](CC(C)C)C(=O)N2C[C@H](O)C[C@H]2C(=O)N(C)[C@@H](CC(C)C)C(=O)N[C@@H](CC(=O)O)C(=O)N[C@@H](CCCNC(=N)N)C(=O)N[C@H](C(N)=O)[C@@H](C)CC)C1` [JAL-1621, Occ-Sni-Mtf-leu-Leu-Hyp-Nml-Asp-Arg-Ile-NH2] (Octanoyl-[X2][Phe(3-CF3)][dL]L[Hyp][NMeL]DRI-NH2) gave an EC50 of less than 1 µM.

Source: patent US9822147B2, “Methods of treating ophthalmic diseases using NPR-B agonists” (priority 2009, dated 2017)
